# Tests used:
# [1] = tested on: male Wistar rats with left ventricular hypertrophy induced by constriction of the abdominal aorta; assay: Evaluation of cardiac function in rats with aortic constriction (left ventricular catheter); assay type: in vivo, rat; details: anaesthetised rats with aortic constriction, clofibrate 0.2% in the feed for 12 weeks, mean ± standard deviation
# Protocol: (§1) Animal-housed male Wistar rats weighing 100-120 g were used: 5 per cage (cage size: 425 mm×266 mm×180 mm with a sawdust litter) at a temperature of […] and 50±15% humidity with a 12/12 h light/darkness cycle and with 15-20 air changes/hour. The animals were fed with LP ALTROMIN (REIPER) feed and spring water ad libitum
# (§2) Left ventricular hypertrophy was induced in rats anaesthetised with Nembutal sodium, by means of constriction of the abdominal aorta with a clip (Ø0.8 mm) placed in the abdominal aorta between the diaphragm and the renal branches; one group of animals, which was then used as a control group, underwent the same operation but was not submitted to constriction of the aorta (shams).
# (§3) The animals were thus randomly assigned to the following groups:
# (§4) CLO: operated on with aortic constriction and treated for 12 weeks, from the day after the operation with clofibrate 0.2% in the feed (60-100 mg/kg/day (n=11).
# At the end of treatment, cardiac function was evaluated, in the animals anaesthetised with Nembutal sodium, by means of a polyethylene catheter inserted in the left ventricle via the carotid and connected up to a pressure transducer (Statham p23 XL) and to an amplifier (Biomedica Mangoni bm 61).
# The parameters recorded were: heart rate, ventricular systolic and end-diastolic pressure, and the positive and negative derivatives of ventricular pressure, which were recorded on a personal computer by means of a special data acquisition system (IDAS). The measurements were taken for a period of 30 minutes.
# The data were expressed as mean ± standard deviation and were compared using Student's t-test for independent data. Differences with P<0.05 were regarded as statistically significant.
# [2] = tested on: male Wistar rats with left ventricular hypertrophy induced by constriction of the abdominal aorta; details: rats with aortic constriction, clofibrate 0.2% in the feed for 12 weeks, mean ± standard deviation
# Protocol: as §1, §2, §3, §4
# At the end of the experiments the animals were sacrificed by means of a lethal dose of Nembutal, the abdominal cavity was opened, the organs were exteriorised in order to verify correct positioning of the aortic clip, and the heart, lungs and liver were then removed and carefully dried and weighed after macroscopic observation of any abnormalities.
# The data were expressed as mean ± standard deviation and were compared using Student's t-test for independent data. […]
smiles,measurement,setting,value
"CCOC(=O)C(C)(C)Oc1ccc(Cl)cc1 [CLO, clofibrate]",DP/dt max = positive derivative of ventricular pressure,[1],16108 ± 1115eC mm Hg/sec
same,DP/dt min = negative derivative of ventricular pressure,[1],9556 ± 560bA mm Hg/sec
same,DP/dtmax/LVSP (positive derivative normalised for ventricular systolic pressure),[1],77 ± 5 s⁻¹
same,HR = heart rate,[1],401 ± 16 b/min
same,LDevP/HW (developed pressure normalised for ventricular weight),[1],13.3 ± 1.5aC
same,LVEDP = left ventricular end-diastolic pressure,[1],7.2 ± 1.2 mmHg
same,LVSP = left ventricular systolic pressure,[1],206 ± 5aB mm Hg
same,LdevP developed pressure,[1],207 ± 7cA mm Hg
same,VW/BW (ventricular weight (mg) / body weight (g)),[2],3.33 ± 0.20a

# Source: US20030176499A1, “Use of fibrates for the preparation of a medicament useful in the treatment of congestive heart failure” (priority 2003, published 2003)
